In US4808409A, “Low cariogenic sweetening agents” (Board of Trustees, University of Illinois, priority 1984, dated 1989):

Legend:
human taste panel = assay: Human taste panel magnitude estimation of sweetness intensity and pleasantness
Text: Solutions were presented to the subjects in a randomized fashion and were sampled in duplicate. After tasting, each solution was expectorated, and the mouth was washed with distilled water.

S. mutans = assay: Cariogenicity: acid production by S. mutans from sweetener; format: cell-based; details: 500 micrograms per unit volume sucrose
Method: In a first test, the ability of microbes to utilize this sweetener source as a nutrient and convert it to acidic by-products was determined.

male Swiss-Webster mice = assay: in vivo; details: oral
Method: (§1) Compounds were suspended in a minimum volume of 1% sodium carboxymethylcellulose, and were administered by oral intubation at the doses indicated in Table II.
^a Male SwissWebster mice (9 or 10 animals per dose).
^d Mortality = number of mice dying within 14 days/number of starting
^e Mortality = number of mice dying within 24 hours/number of startin

[1] = Body weight variation in mice following oral administration; details: for Day 14 total body weight vs control values: Day 14, in words
Method: as §1

With `OC[C@H]1O[C@@](CO)(O[C@H]2O[C@H](CO)[C@@H](O)[C@H](O)[C@H]2O)[C@@H](O)[C@@H]1O` [Sucrose, reference compound] the “Sweetness intensity, sucrose 0.031 M” value (human taste panel; 0.031 M, scale 0-100, mean (standard error)) was 6.6 (2.44), the “Sweetness pleasantness, sucrose 0.031 M” value (human taste panel; 0.031 M, scale -100 to +100, mean (standard error)) was -3.2 (6.44) and the “Sweetness intensity, sucrose 0.062 M” value (human taste panel; 0.062 M, scale 0-100, mean (standard error)) was 7.8 (1.96). The “Sweetness pleasantness, sucrose 0.062 M” value (human taste panel; 0.062 M, scale -100 to +100, mean (standard error)) was -1.6 (7.61), the “Sweetness intensity, sucrose 0.125 M” value (human taste panel; 0.125 M, scale 0-100, mean (standard error)) was 21.9 (3.30) and the “Sweetness pleasantness, sucrose 0.125 M” value (human taste panel; 0.125 M, scale -100 to +100, mean (standard error)) was 19.2 (5.23). The “Sweetness intensity, sucrose 0.25 M” value (human taste panel; 0.25 M, scale 0-100, mean (standard error)) was 38.1 (4.43), the “Sweetness pleasantness, sucrose 0.25 M” value (human taste panel; 0.25 M, scale -100 to +100, mean (standard error)) was 31.8 (6.34) and the “Sweetness intensity, sucrose 0.50 M” value (human taste panel; 0.50 M, scale 0-100, mean (standard error)) was 44.4 (4.63). The “Sweetness pleasantness, sucrose 0.50 M” value (human taste panel; 0.50 M, scale -100 to +100, mean (standard error)) was 37.8 (5.96), the “Sweetness intensity, sucrose 1.0 M” value (human taste panel; 1.0 M, scale 0-100, mean (standard error)) was 75.5 (4.73) and the “Sweetness pleasantness, sucrose 1.0 M” value (human taste panel; 1.0 M, scale -100 to +100, mean (standard error)) was 2.5 (9.57). The “Sweetness intensity, sucrose 2.0 M” value (human taste panel; 2.0 M, scale 0-100, mean (standard error)) was 89.1 (2.93), the “Sweetness pleasantness, sucrose 2.0 M” value (human taste panel; 2.0 M, scale -100 to +100, mean (standard error)) was -20.2 (12.69) and the “Sucrose concentration providing a standard panel response to sucrose intensity” value (human taste panel; determined graphically) was 0.27 M. The “Sweetness intensity at matched concentration” value (human taste panel; scale 0-100, sucrose 0.27 M, natural hernandulcin 2.5 × 10^-4 M) was 40 and the “Rate of acid production at 500 micrograms per unit volume” value (S. mutans) was 2.8×10^-4 mEq acid/min.
With `CC(=O)CCC=C(C)C` [6-Methyl-5-hepten-2-one, 6-methyl-5-hepten-2-one] the “Mortality at 1.0 g/kg” value (male Swiss-Webster mice; 1.0 g/kg, 14 days, hernandulcin = synthetic) was 0/9, the “Mortality at 2.0 g/kg (14 days)” value (male Swiss-Webster mice; 2.0 g/kg, 14 days, hernandulcin = synthetic) was 0/9 and the “Acute toxicity for mice” value (male Swiss-Webster mice; in words) was “essentially non-toxic”. For the same molecule, the “Estimated LD50” value (male Swiss-Webster mice; male mice, hernandulcin = synthetic (two enantiomers)) was > 2000 mg/kg, the “Mortality at doses up to 2 g/kg” value (male Swiss-Webster mice; up to 2 g/kg body weight, in words) was “no mortality” and the “Body weight, Day 1 (1.0 g/kg)” value ([1]; 1.0 g/kg oral, Day 1, hernandulcin = synthetic) was 28.2 ± 0.8 g. For the same molecule, the “Body weight, Day 3 (1.0 g/kg)” value ([1]; 1.0 g/kg oral, Day 3, hernandulcin = synthetic) was 26.3 ± 0.8 g, the “Body weight, Day 7 (1.0 g/kg)” value ([1]; 1.0 g/kg oral, Day 7, hernandulcin = synthetic) was 24.7 ± 0.9 g and the “Body weight, Day 14 (1.0 g/kg)” value ([1]; 1.0 g/kg oral, Day 14, hernandulcin = synthetic) was 28.0 ± 0.8 g. The “Body weight, pre-drug (1.0 g/kg group)” value ([1]; 1.0 g/kg oral, pre-drug, hernandulcin = synthetic) was 27.7 ± 0.8 g, the “Body weight, Day 1 (2.0 g/kg)” value ([1]; 2.0 g/kg oral, Day 1, hernandulcin = synthetic) was 28.6 ± 0.8 g and the “Body weight, Day 3 (2.0 g/kg)” value ([1]; 2.0 g/kg oral, Day 3, hernandulcin = synthetic) was 26.8 ± 0.9 g. The “Body weight, Day 7 (2.0 g/kg)” value ([1]; 2.0 g/kg oral, Day 7, hernandulcin = synthetic) was 25.0 ± 0.9 g, the “Body weight, Day 14 (2.0 g/kg)” value ([1]; 2.0 g/kg oral, Day 14, hernandulcin = synthetic) was 24.5 ± 0.8 g and the “Body weight, pre-drug (2.0 g/kg group)” value ([1]; 2.0 g/kg oral, pre-drug, hernandulcin = synthetic) was 28.8 ± 0.8 g. The “Day 14 total body weight vs control values” [1] was “Significant difference from controls” and the “Day 14 total body weight vs control values” ([1]; listed as 6-methyl-5-hepten-2-one) was “significantly different from control values”.
